Broadly, the IC50 is the concentration that gives 50% inhibition. For orientation: viability, T/C means the ratio of treated to control.

This experiment has as its system HSSY-II tumor spheroid viability. As to the kind of experiment: Anticancer human tumor HSSY-II cell line growth inhibition.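 On all read-outs here: spheroids exposed to compounds for seven days before reading.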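 On viability, T/C: percent of DMSO vehicle control viability so 100% = untreated level.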 The settings on record: spheroids with HUVEC and MSC; for viability, T/C: stronger effect = lower value. The procedure, abridged: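 Complex spheroids of malignant cells with endothelial cells and mesenchymal stem cells; agents alone or combined, from near clinical Cmax (or 10 microM if unknown) down in half-log steps, 0.25% DMSO final.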

Consider `CC(C)n1c(=O)n(C)c2cnc3cc(F)c(-c4ccc(OCCCN5CCCCC5)nc4)cc3c21` + Cn1nnc2c(C(N)=O)ncn2c1=O, for which the IC50 is, setting by setting: (curve of first compound, second compound 1 µM) 6.4 µM; (curve of first compound, second compound 3.16 µM) 6.7 µM; (curve of first compound, second compound 10 µM) 6.54 µM; (curve of first compound, second compound 31.6 µM) 5.86 µM; (curve of first compound, second compound 100 µM) 9.48 µM. The viability, T/C was 100% (second compound 1 µM, first compound 0.0316 µM); 97.4% (second compound 1 µM, first compound 0.1 µM); 97.2% (second compound 1 µM, first compound 0.316 µM); 89.6% (second compound 1 µM, first compound 1 µM); 72.7% (second compound 1 µM, first compound 3.16 µM); 35.8% (second compound 1 µM, first compound 10 µM). Further, the viability, T/C is, setting by setting: (second compound 3.16 µM, first compound 0.0316 µM) 102%; (second compound 3.16 µM, first compound 0.1 µM) 102%; (second compound 3.16 µM, first compound 0.316 µM) 98%; (second compound 3.16 µM, first compound 1 µM) 93.7%; (second compound 3.16 µM, first compound 3.16 µM) 70.1%; (second compound 3.16 µM, first compound 10 µM) 39.2%. Also, the viability, T/C is, setting by setting: (second compound 10 µM, first compound 0.0316 µM) 103%; (second compound 10 µM, first compound 0.1 µM) 107%; (second compound 10 µM, first compound 0.316 µM) 97.4%; (second compound 10 µM, first compound 1 µM) 97.4%; (second compound 10 µM, first compound 3.16 µM) 73.7%; (second compound 10 µM, first compound 10 µM) 36%. Besides, the viability, T/C is, setting by setting: (second compound 31.6 µM, first compound 0.0316 µM) 108%; (second compound 31.6 µM, first compound 0.1 µM) 96%; (second compound 31.6 µM, first compound 0.316 µM) 92.4%; (second compound 31.6 µM, first compound 1 µM) 89.9%; (second compound 31.6 µM, first compound 3.16 µM) 70.9%; (second compound 31.6 µM, first compound 10 µM) 32.4%. Moreover, the viability, T/C (second compound 100 µM, first compound 0.0316 µM) is 88.5%; the viability, T/C (second compound 100 µM, first compound 0.1 µM) was 92.9%; the viability, T/C (second compound 100 µM, first compound 0.316 µM) was 86.5%; the viability, T/C (second compound 100 µM, first compound 1 µM) is 76.1%; the viability, T/C (second compound 100 µM, first compound 3.16 µM) is 69.6%; the viability, T/C (second compound 100 µM, first compound 10 µM) is 48.4%.

On to `CC[C@@]1(O)C(=O)OCc2c1cc1n(c2=O)Cc2cc3c(CN(C)C)c(O)ccc3nc2-1`, for which the viability, T/C (compound 0.003 µM) is 85.6% [middle of 10 runs]; the viability, T/C (compound 0.03 µM) was 9.85% [middle of 10 runs]; the viability, T/C (compound 0.0949 µM) is 8.03% [middle of 9 runs]; the viability, T/C (compound 0.3 µM) was 5.25% [middle of 10 runs]. In addition, the concentration for half-maximal inhibition (IC50) runs as follows: (compound alone, run of 12/02/2019) 8.2 nM [middle of 5 runs]; (compound alone, run of 12/12/2019) 11.6 nM [middle of 5 runs].

The values above are taken from PubChem BioAssay AID1845204 (Molecular Pharmacology Branch, DTP, NCI, 2023).
